Measurements taken from publication PMC10600239, “Selective MCL-1 inhibitor ABBV-467 is efficacious in tumor models but is associated with cardiac troponin increases in patients” (Communications Medicine, 2023).
Several values for one entry are separate records, joined by “and”; a condition that tells them apart may be missing. Equal entries are not always repeated. Where two headings read alike, the source gives them in different places.

Experiments:
Test in all cases: Time-resolved FRET binding assay
[1] = molecular target: BCL-2 (Homo sapiens, UniProt P10415); conditions: TR-FRET
Experimental: (§1) Binding affinities for MCL-1, BCL-2, BCL-XL, BCL-W, and BCL2-A1 were determined using a time-resolved fluorescence resonance energy transfer (FRET) assay. Test compounds were serially diluted in DMSO starting at […] (20× starting concentration; 100% DMSO followed by a 1:10 dilution of the compound DMSO plate into assay buffer); 10 µL of the compound in 10% DMSO was then transferred into a 384-well plate (low-volume Corning #3673 assay plate). Glutathione S-transferase (GST)-tagged recombinant BCL-2, BCL-XL, MCL-1, BCL-W, or BCL2-A1 protein (1 nM each) were mixed with 100 nM Oregon Green™-labeled f-BAK peptide probe and 1 nM Tb-labeled anti-GST antibody were mixed. Then 10 µL of a 2× protein/probe/antibody mix was added to each well of increasing concentrations of test compound in assay buffer (20 mM potassium phosphate, pH 7.6, 50 mM NaCl, 1 mM ethylenediaminetetraacetic acid disodium salt dihydrate, 0.05% pluronic acid F-68, 1 mM DL-dithiothreitol) at room temperature (final concentrations listed in Supplementary Table S2). The samples were then mixed on a shaker for 1 min and incubated for an additional 1 h at room temperature. For each assay plate, a probe/antibody and protein/antibody/probe mixture were included as a negative and a positive control, respectively. Fluorescence was measured on the EnVision™ (Perkin Elmer) using a 340/35-nm excitation filter and 520/525- (F-Bak) and 495/510-nm (Tb-labeled anti-glutathione S-transferase [GST] antibody) emission filters. Dissociation constants were determined using Wang’s equation[35]. The time-resolved FRET assay can be performed in the presence of varying concentrations of human serum to determine apparent half-maximal inhibitory concentration after serum protein binding.

[2] = molecular target: T1, BCL-W (Homo sapiens, UniProt Q92843)
T1 sequence (Q92843 1-193): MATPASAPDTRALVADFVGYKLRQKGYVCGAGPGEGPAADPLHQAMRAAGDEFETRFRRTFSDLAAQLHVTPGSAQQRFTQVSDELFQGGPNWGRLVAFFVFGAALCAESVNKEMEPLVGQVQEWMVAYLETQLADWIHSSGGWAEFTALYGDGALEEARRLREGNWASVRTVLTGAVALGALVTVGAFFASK
Experimental: as §1

[3] = molecular target: BCL-XL (Homo sapiens, UniProt Q07817)
Experimental: as §1

[4] = molecular target: T2, BCL2-A1 (Homo sapiens, UniProt Q16548); conditions: TR-FRET, individual determinations; read-out: Individual Ki, BCL2-A1
T2 sequence (Q16548 1-175): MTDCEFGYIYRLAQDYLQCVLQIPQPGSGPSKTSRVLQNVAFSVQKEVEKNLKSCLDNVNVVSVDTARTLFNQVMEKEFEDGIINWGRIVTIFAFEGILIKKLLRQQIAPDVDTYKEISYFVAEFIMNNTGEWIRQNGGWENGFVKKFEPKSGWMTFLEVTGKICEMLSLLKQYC
Experimental: as §1

Sequence of BCL-2 (P10415 whole entry): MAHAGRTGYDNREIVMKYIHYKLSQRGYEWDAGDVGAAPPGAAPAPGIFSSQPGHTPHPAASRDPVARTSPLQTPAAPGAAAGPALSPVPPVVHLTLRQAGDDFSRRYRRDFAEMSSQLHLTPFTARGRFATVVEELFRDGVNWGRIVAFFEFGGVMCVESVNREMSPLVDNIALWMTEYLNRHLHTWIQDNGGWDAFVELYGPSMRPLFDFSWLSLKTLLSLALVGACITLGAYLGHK
Sequence of BCL-XL (Q07817 whole entry): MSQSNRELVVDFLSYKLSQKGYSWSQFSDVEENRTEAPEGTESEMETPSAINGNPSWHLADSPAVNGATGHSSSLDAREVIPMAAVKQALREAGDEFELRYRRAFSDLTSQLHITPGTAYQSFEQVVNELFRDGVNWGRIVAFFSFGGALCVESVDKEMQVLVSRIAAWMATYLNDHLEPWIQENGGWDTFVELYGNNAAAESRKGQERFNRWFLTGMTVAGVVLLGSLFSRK

For `Cc1c(Cl)c2c(Cl)c(C)c1-c1c(-c3ccc(F)cc3)sc3ncnc(c13)O[C@@H](C(=O)O)Cc1cc(ccc1OCc1ccnc(-c3ccc(OC[C@H]4COCCO4)cc3)n1)OC[C@@H](CN1CCN(C)CC1)O2` [ABBV-467], the Ki ([1]; arithmetic mean, read-out: Arithmetic Mean Ki, BCL-2) was greater than 642 nM, the Ki ([1]; individual determinations, read-out: Individual Ki, BCL-2) was greater than 642 nM and the Ki ([2]; TR-FRET, arithmetic mean, read-out: Arithmetic Mean Ki, BCL-W) was greater than 247 nM. The Ki ([2]; TR-FRET, individual determinations, read-out: Individual Ki, BCL-W) was greater than 247 nM, the Ki ([2]; read-out: TR-FRET, Ki, nM BCL-W) was greater than 247 nM and the Ki ([3]; TR-FRET, arithmetic mean, read-out: Arithmetic Mean Ki, BCL-XL) was greater than 376 nM. For the same compound, the Ki ([3]; TR-FRET, individual determinations, read-out: Individual Ki, BCL-XL) was greater than 376 nM, the Ki ([3]; read-out: TR-FRET, Ki, nM BCL-XL) was greater than 376 nM and the Ki [4] was 402 nM and > 468 nM (2×).
